Assay results from patent publication US11180762B2, “Methods and compositions for the treatment of cancer” (CHILDREN'S MEDICAL CENTER CORPORATION, priority 2014, dated 2021).
“Also recorded” adds a separate entry of the source. Like-named read-outs stand apart in the source and are kept apart here.

Assays:
[1] = tested on: MB468-luc tumors; test: Tumor inhibition, EpCAM+ MB468-luc xenograft; type: in vivo, nude mice; conditions: 5 mg/kg sc every 3 d (72 h) for 2 wks
Method: For tumor inhibition studies, MB468-luc (5×10^6) and MB231-luc-mCherry (5×10^5) cells trypsinized with Tryple Express (Invitrogen), resuspended in a 1:1 WIT-Matrigel solution and injected subcutaneously in the flank of 8-week old female Nu/J mice (Stock #002019, Jackson Laboratories). Tumors size was analyzed daily using the IVIS Spectra, after 5 days tumors were clearly visible. […] Mice were treated every 72 h for 14 days.

[2] = target: T1, mouse EpCAM (Mus musculus, UniProt Q99JW5); test: EpCAM aptamer binding to mouse EpCAM
T1 construct: endogenous in cells; host or cells: 4T1 (EpCAM high) and 67NR (EpCAM minimal) mouse cancer cell lines
T1 sequence (Q99JW5 24-315): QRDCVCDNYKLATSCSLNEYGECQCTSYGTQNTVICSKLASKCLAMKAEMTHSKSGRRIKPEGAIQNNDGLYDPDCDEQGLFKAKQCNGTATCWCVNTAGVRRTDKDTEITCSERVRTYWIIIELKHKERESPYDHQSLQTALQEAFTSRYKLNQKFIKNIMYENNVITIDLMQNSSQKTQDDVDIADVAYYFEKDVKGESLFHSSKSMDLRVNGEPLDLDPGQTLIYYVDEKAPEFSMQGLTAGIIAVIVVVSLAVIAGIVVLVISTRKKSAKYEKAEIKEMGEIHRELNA

[3] = tested on: basal-A, luminal and basal-B breast cancer cell lines; test: Cell proliferation/viability by CellTiter-Glo in 10 breast cancer cell lines; type: cell-based, human
Text: To explore whether EpCAM-AsiCs could be used as anti-tumor agents in breast cancer, we examined by CellTiterGlo assay the effect of AsiCs directed against PLK1, a kinase required for mitosis, on survival of 10 breast cancer cell lines that included 5 basal-A TNBCs, 2 luminal cell lines, and 3 basal-B TNBCs. […] The anti-proliferative effect strongly correlated with EpCAM expression (FIG. 2B). The reduction in viable EpCAM+ cells after knockdown was due to induction of apoptosis, assessed by annexin V-propidium iodide staining and caspase activation (data not shown). To determine whether ligation of the EpCAM aptamer contributed to the anti-proliferative effect of the EpCAM-AsiC, we compared survival of cells that were treated with the PLK1 EpCAM-AsiC with cells treated with the aptamer on its own (FIG. 2C). […] Thus the PLK1 EpCAM-AsiC asserts its specific anti-tumor effect on EpCAM+ breast cancer cells by gene knockdown.
(§1) For uptake and silencing treatment, cells were plated at low density (10,000 cells/well in 96-well plates) and treated immediately. All AsiC and siRNA treatments were performed in either OptiMEM or WIT medium. Cell viability was assessed by CellTiter-Glo (Promega) or by Trypan-Blue staining in 96-well plates.

[4] = tested on: EpCAM+ MDA-MB-468 and BPLER cells vs BPE cells; test: Uptake of fluorescently labeled aptamer/AsiC by breast cell lines (flow cytometry, microscopy); type: cell-based, human; conditions: Cy3 at 5'-end, 22 and 43 hr
Text: To verify selective uptake by EpCAM+ tumor cells, confocal fluorescence microscopy was used to compare internalization of the EpCAM aptamer, fluorescently labeled at the 5′-end with Cy3, in EpCAM+ MDA-MB-468 TNBC cells and BPE, EpCAM^dim immortalized breast epithelial cells (data not shown). […] As a consequence, cellular internalization is slow since it likely occurs via receptor recycling, rather than the more rapid process of activation-induced endocytosis.
as §1
For flow cytometry, cells were stained as previously described (Yu, F. et al (2007). let-7 Regulates Self Renewal and Tumorigenicity of Breast Cancer Cells. Cell 131, 1109-1123. ), briefly, direct immunostaining of EpCAM and AKT1 was performed using 1:50 dilutions of hAb for 30-60 minutes at 4° C. (BioLegend/BD). Cells were stained in PBS containing 0.5% FCS, 1 mM EDTA, and 25 mM HEPES. Samples were washed twice in the same buffer. Data was acquired using FACS-Canto II (BD Biosciences). Analyses were performed in triplicate and 10,000 gated events/sample were counted. All data analysis was performed using FlowJo (Treestar Inc.).

[5] = target: human EpCAM (Homo sapiens, UniProt P16422); conditions: 19 nt aptamer; read-out: affinity for human EpCAM; cited from earlier work
Sequence of human EpCAM (P16422 24-314): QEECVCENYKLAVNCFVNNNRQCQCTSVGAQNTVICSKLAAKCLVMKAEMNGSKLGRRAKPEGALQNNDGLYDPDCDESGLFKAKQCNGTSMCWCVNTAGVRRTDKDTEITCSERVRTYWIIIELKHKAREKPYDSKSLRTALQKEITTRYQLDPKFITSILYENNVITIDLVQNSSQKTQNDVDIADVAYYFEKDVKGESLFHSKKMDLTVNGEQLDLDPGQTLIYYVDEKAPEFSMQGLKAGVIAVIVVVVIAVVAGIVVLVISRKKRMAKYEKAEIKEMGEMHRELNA

[6] = tested on: 4T1 and 67NR cells; test: EpCAM aptamer uptake by mouse cell lines; type: cell-based

In the case of “EpCAM aptamer: 19 nt RNA aptamer to human EpCAM (Shigdar 2011); GCGACUGGUUACCCGGUCGUUU, SEQ ID NO: 33 (GCGACUGGUUACCCGGUCGUUU; listed as RNA, chemistry not given here) [reference compound]”, the “growth of EpCAM+ MB468 tumors” value [1] is reported as “continued to grow without significant change; also recorded: neither of which had any anti-tumor activity”, the “binding to mouse EpCAM” value [2] is reported as “does not bind to mouse EpCAM; also recorded: does not recognize mouse EpCAM” and the “binding to mouse EpCAM” value ([2]; listed as EpCAM aptamers) is reported as “do not bind mouse EpCAM”. For the same substance, the “cell proliferation/viability, all cell lines tested” value [3] was “did not have a reproducible effect on survival of any breast cancer cell lines; also recorded: had no effect on cell proliferation”, the “cell proliferation/viability, basal-A and luminal (EpCAM+) lines” value [3] was “does not affect cell growth or viability of EpCAM+ breast tumor cell lines” and the “cell proliferation/viability, all cell lines tested” value ([3]; listed as EpCAM-aptamer) was “None of the cell lines treated with EpCAM-aptamer displayed decrease in cell viability; also recorded: didn't effect cell viability in any of the cell lines”. The “uptake of Cy3-labeled aptamer, MDA-MB-468 vs BPE” value [4] was “Only MDA-MB-468 cells took up the aptamer”, the “uptake of Cy3-labeled aptamer, MDA-MB-468 vs BPE” value ([4]; listed as EpCAM-Aptamer) was “selective AsiC uptake in EpCAM+ cells” and the Kd [5] was 0.012 µM. The “uptake by 4T1 and 67NR cells” value [6] was “not taken up by neither 4T1 nor 67NR cells”.
